Ends that are not written are not given here.
Legend:
[1] = in vivo; cited from earlier work
CaN = biological target: T1, CaN (Rattus norvegicus, UniProt P63329); test: CaN phosphatase activity toward 32P RII peptide substrate; format: biochemical
T1 construct: made in house; host or cells: Sf9 cells (baculovirus)
Description: (§1) To determine whether AKAP 79 peptide binding inhibits CaN activity, CaN phosphatase activity was assayed in the presence of recombinant AKAP 79. Briefly, recombinant AKAP 79 was expressed in E. coli as described in Carr et al., J. Biol. Chem., 267:16816-16823 (1992), incorporated herein by reference. CaN and the constitutively active truncation mutant CaN420 (a truncated, Ca^2+ /calmodulin independent constitutively active form of CaN (Perrino et al., J. Biol. Chem., in press)) were expressed in Sf9 cells and purified on calmodulin-Sepharose as described in Perrino et al., J. Biol Chem., 267:15965-15969 (1992), incorporated herein by reference. Phosphatase activity toward ^32 P RII peptide substrate was measured as described in Perrino et al., supra. CaN (30 nM), calmodulin (100 nM) and ^32 P RII peptide (22 μM) were incubated with AKAP 79 protein and AKAP 79 peptide (SEQ ID NO:1-amino acids 81-102) over the range of concentrations indicated in FIG. 1B. Calmodulin was omitted from CaN420 assays. ^32 P released from the substrate was measured in triplicate samples in three separate experiments by scintillation counting. The inhibition constant (Ki) of recombinant AKAP 79 for CaN was determined by linear regression analysis of data. Ki values for AKAP 79 peptide were estimated by determining the IC50 using a fixed substrate concentration at Km (42 μM).

[2] = following liver transplantation; cited from earlier work
protein phosphatases 1 = test: Protein phosphatase 1 activity; format: biochemical; settings: peptide concentrations as high as 0.4 mM
CaN420 = biological target: T2, CaN420 (Rattus norvegicus, UniProt P63329); test: CaN420 phosphatase activity toward 32P RII peptide substrate; format: biochemical; settings: calmodulin omitted
T2 construct: a truncated, Ca^2+ /calmodulin independent constitutively active form of CaN; made in house; host or cells: Sf9 cells (baculovirus)
Description: as §1

protein phosphatases 2A = test: Protein phosphatase 2A activity; format: biochemical; settings: peptide concentrations as high as 0.4 mM
^32 P-inhibitor 1 = test: Calcineurin phosphatase assay of reconstituted CaN holo-enzyme; format: biochemical; settings: in association with CaN B, ten minute incubation at room temperature, 33 nM complex
Description: The activity of CaN is measured by the Ca^2+ --and calmodulin-dependentrelease of ^32 Pi from ^32 P-inhibitor 1, using the method of Nairn, et al. [Neuroprotocols 6:108-111 (1995)]. Identified chemicals are pre-incubated with 4 or 30 nM CaN before initiation of the reaction with ^32 P-inhibitor 1 (Chemicon). Inhibitor 1 (50 μg) was phosphorylated using the catalytic subunit of PKA and purified according to the procedure described in Nairn, et al., [supra]. Phosphatase activity in the absence of chemicals is defined as 100%.
In order to determine if the mutated CaN A protein retained phosphatase activity, a CaN holo-enzyme was reconstituted. One micromole of purified wild type or mutant CaN A was incubated with equal molar amount of purified CaN B (Chemicon), and calmodulin (Sigma) in 50 mM Hepes, pH 7.5, 1 mM MnCl2, 0.5 mM EDTA, 1 mM DDT, and 2 mg/ml BSA, for 24 hours at 4° C., after which 33 nM of the reconstituted complex was used in a calcineurin phosphatase assay using ^32 P-inhibitor 1 as substrate as described in Example 14.

N=C(N)NCCCCCCC(=O)NC(O)C(=O)NCCCCNCCCN (centres unmarked) [15-Deoxyspergualin]
effective in refractory kidney rejection [1]: 70-90%

C=CC[C@@H]1/C=C(\C)C[C@H](C)C[C@H](OC)[C@H]2O[C@@](O)(C(=O)C(=O)N3CCCC[C@H]3C(=O)O[C@H](/C(C)=C/[C@@H]3CC[C@@H](O)[C@H](OC)C3)[C@H](C)[C@@H](O)CC1=O)[C@H](C)C[C@@H]2OC [FK506, reference compound]
effect on the potency of inhibition of CaN by AKAP 79 (CaN; FK506 2 μM): did not affect
patients with moderate to severe neurotoxicity [2]: 10-20%

RRKRSQSSKEEKP [AKAP 79 peptide]
inhibition of full-length CaN phosphatase activity (CaN; Ca2+/calmodulin dependent CaN 30 nM, 32P RII peptide substrate): inhibited
effect on activity of protein phosphatase 1 (protein phosphatases 1): did not significantly affect
inhibition of CaN420 phosphatase activity (CaN420): inhibited
effect on activity of protein phosphatase 2A (protein phosphatases 2A): did not significantly affect

biotinylated CaN A: endogenously biotinylated rat brain calcineurin A, wild type
dephosphorylation of substrate (^32 P-inhibitor 1): 33%
